The text below walks through data of ChEMBL document CHEMBL5137040, “Identification of non-ATP-competitive α-carboline inhibitors of the anaplastic lymphoma kinase” (Eur J Med Chem, 2022).

SMILES strings stand for the structures. The source made the active and inactive calls. No cut-off for these calls is given here.

The test system of data set [1] is BaF3. The experiment in a line: cells. To be noted: Mus musculus, BaF3, 72 h.
In data set [2] the test system is BaF3. The experiment in a line: cells. To be noted: Mus musculus, BaF3, 72 h. The source holds these as a separate data set.
For data set [3], the system named is BaF3. The experiment in a line: cells. Conditions: Mus musculus, BaF3, 72 h. This is another data set of the same source.
Data set [4] addresses ALK tyrosine kinase receptor (Homo sapiens, UniProt Q9UM73). It is filed as cell-based, Sf9.
Data set [5] concerns KARPAS-299. Description: Antitumor activity against crizotinib-resistant human KARPAS-299 cells harboring L1196Q mutant xenografted in nude mouse assessed as tumor growth inhibition at 100 mg/kg, po administered twice daily for 24 days. The class given is functional, organism-based. To be noted: time 24.0 day.
Data set [6] in a line: Half-life in po dosed nude mouse. It is filed as ADME, organism-based. To be noted: in vivo.
Data set [7] relates to SUPM2. It is filed as functional, cell-based. Conditions: Homo sapiens, dose 0.1-10 µM, time 72.0 hrs.
In data set [8] the test system is SUPM2. The experiment in a line: Antiproliferative activity against human SUPM2 cells harboring crizotinib resistant ALK […] mutant assessed as inhibition of cell growth at 0.1 to 10 uM incubated for 72 hrs by MTS assay. Conditions: dose 0.1-10 µM. It is filed as functional, cell-based.
The test system of data set [9] is SUPM2. Description: Antiproliferative activity against human SUPM2 cells harboring crizotinib resistant ALK S1206C mutant assessed as inhibition of cell growth at 0.1 to 10 uM incubated for 72 hrs by MTS assay. Conditions: dose 0.1-10 µM. The class given is functional, cell-based.
For data set [10], the system named is BaF3. The experiment in a line: Cytotoxicity against mouse BaF3 cells harboring crizotinib resistant NPM/ALK I1171N mutant assessed as inhibition of cell proliferation incubated for 72 hrs by MTS assay. Conditions: BaF3, 72 h. The class given is functional, cell-based.
For the next data set, the system named is HL-60. The experiment in a line: Antiproliferative activity against NPM-ALK negative human HL-60 cells assessed as inhibition of cell growth incubated for 72 hrs by MTS assay. The class given is functional, cell-based. To be noted: HL-60, 72 h.
Data set [11] concerns BaF3. The experiment in a line: Cytotoxicity against mouse BaF3 cells harboring crizotinib resistant NPM/ALK C1156Y mutant assessed as inhibition of cell proliferation incubated for 72 hrs by MTS assay. The class given is functional, cell-based. Conditions: BaF3, 72 h.
In data set [12] the test system is KARPAS-299. Description: Antitumor activity against human KARPAS-299 cells xenografted in nude mouse assessed as tumor growth inhibition at 100 mg/kg, po administered twice daily for 24 days. It is filed as functional. Also noted: scale not given: the % may be the effect or the level left. To be noted: time 24 day.
Data set [13] in a line: Antiproliferative activity against NPM-ALK positive human SUPM2 cells assessed as inhibition of cell growth incubated for 72 hrs by MTS assay. The class given is functional, cell-based. Conditions: SUP-M2, 72 h.
For data set [14], the target named is Fibroblast growth factor receptor 1 (Homo sapiens) (UniProt P11362). The experiment in a line: Inhibition of recombinant FGFR1 (unknown origin) at 10 uM by kinase selectivity assay relative to control.
Data set [15] addresses Vascular endothelial growth factor receptor 2 (Homo sapiens) (UniProt P35968). Description: Inhibition of recombinant VEGFR2 (unknown origin) at 10 uM by kinase selectivity assay relative to control.
The target in data set [16] is Epidermal growth factor receptor (Homo sapiens) (UniProt P00533). Description: Inhibition of recombinant EGFR (unknown origin) at 10 uM by kinase selectivity assay relative to control.
Data set [17] deals with KARPAS-299. The experiment in a line: Antiproliferative activity against NPM-ALK positive human KARPAS-299 cells assessed as inhibition of cell growth incubated for 72 hrs by MTS assay. It is filed as functional, cell-based. Conditions: KARPAS-299, 72 h.
For data set [18], the target named is Insulin-like growth factor 1 receptor (Homo sapiens) (UniProt P08069). The experiment in a line: Inhibition of recombinant IGF1R (unknown origin) at 10 uM by kinase selectivity assay relative to control.
The subject of data set [19] is KARPAS-299. Description: Antiproliferative activity against human KARPAS-299 cells harboring crizotinib resistant ALK L1196Q mutant assessed as inhibition of cell growth at 0.1 to 10 uM incubated for 72 hrs by MTS assay. The class given is functional, cell-based. Conditions: dose 0.1-10 µM.
Data set [20] in a line: Tmax in po dosed nude mouse. It is filed as ADME, organism-based. Conditions: in vivo.
Another data set has as its system SU-DHL-1. The experiment in a line: Antiproliferative activity against NPM-ALK positive human SU-DHL-1 cells assessed as inhibition of cell growth incubated for 72 hrs by MTS assay. It is filed as functional, cell-based. Conditions: SU-DHL-1, 72 h.
The subject of data set [21] is BaF3. Description: Cytotoxicity against mouse BaF3 cells harboring crizotinib resistant NPM/ALK F1174L mutant assessed as inhibition of cell proliferation incubated for 72 hrs by MTS assay. Conditions: BaF3, 72 h. It is filed as functional, cell-based.

Sequence of ALK tyrosine kinase receptor (Q9UM73 whole entry): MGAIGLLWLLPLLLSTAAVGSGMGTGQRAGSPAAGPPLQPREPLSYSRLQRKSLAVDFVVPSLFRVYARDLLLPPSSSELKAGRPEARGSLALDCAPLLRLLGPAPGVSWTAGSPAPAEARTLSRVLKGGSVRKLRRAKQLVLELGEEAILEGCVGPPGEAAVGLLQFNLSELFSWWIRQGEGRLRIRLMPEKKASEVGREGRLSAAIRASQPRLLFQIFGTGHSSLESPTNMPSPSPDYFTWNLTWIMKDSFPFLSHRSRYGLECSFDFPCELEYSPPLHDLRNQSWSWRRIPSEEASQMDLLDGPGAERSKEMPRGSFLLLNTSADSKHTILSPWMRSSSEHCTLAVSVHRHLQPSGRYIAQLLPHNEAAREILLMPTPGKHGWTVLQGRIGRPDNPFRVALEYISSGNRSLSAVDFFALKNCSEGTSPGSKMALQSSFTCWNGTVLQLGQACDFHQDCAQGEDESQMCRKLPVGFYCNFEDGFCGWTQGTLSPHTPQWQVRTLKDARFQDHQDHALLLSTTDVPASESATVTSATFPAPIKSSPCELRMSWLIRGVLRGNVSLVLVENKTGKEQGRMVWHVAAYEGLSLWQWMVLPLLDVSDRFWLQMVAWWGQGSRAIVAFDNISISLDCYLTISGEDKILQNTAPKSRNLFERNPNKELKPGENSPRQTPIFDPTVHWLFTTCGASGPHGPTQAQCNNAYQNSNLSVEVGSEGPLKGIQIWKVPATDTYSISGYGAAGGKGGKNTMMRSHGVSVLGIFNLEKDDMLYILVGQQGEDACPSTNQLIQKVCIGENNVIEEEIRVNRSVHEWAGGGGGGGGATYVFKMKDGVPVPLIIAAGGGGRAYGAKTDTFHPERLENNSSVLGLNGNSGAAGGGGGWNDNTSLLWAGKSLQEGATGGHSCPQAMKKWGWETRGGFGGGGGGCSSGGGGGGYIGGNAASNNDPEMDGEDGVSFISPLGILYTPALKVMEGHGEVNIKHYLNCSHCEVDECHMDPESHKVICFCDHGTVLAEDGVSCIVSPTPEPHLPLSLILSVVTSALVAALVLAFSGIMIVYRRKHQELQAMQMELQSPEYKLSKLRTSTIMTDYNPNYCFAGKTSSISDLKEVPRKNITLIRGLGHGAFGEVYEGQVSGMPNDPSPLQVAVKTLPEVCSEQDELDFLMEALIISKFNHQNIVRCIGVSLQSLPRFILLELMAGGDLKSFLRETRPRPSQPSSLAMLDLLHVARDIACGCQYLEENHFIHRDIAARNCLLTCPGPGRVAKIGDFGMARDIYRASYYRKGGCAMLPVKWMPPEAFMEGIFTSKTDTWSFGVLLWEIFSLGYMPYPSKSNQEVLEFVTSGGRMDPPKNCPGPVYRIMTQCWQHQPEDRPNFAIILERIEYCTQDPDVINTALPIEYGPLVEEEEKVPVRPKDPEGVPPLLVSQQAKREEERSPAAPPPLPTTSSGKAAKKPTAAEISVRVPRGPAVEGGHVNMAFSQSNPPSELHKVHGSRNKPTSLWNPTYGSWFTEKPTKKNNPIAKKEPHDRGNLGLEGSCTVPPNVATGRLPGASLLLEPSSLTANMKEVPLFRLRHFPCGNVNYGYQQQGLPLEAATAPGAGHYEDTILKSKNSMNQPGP
Sequence of Vascular endothelial growth factor receptor 2 (Homo sapiens) (P35968 whole entry): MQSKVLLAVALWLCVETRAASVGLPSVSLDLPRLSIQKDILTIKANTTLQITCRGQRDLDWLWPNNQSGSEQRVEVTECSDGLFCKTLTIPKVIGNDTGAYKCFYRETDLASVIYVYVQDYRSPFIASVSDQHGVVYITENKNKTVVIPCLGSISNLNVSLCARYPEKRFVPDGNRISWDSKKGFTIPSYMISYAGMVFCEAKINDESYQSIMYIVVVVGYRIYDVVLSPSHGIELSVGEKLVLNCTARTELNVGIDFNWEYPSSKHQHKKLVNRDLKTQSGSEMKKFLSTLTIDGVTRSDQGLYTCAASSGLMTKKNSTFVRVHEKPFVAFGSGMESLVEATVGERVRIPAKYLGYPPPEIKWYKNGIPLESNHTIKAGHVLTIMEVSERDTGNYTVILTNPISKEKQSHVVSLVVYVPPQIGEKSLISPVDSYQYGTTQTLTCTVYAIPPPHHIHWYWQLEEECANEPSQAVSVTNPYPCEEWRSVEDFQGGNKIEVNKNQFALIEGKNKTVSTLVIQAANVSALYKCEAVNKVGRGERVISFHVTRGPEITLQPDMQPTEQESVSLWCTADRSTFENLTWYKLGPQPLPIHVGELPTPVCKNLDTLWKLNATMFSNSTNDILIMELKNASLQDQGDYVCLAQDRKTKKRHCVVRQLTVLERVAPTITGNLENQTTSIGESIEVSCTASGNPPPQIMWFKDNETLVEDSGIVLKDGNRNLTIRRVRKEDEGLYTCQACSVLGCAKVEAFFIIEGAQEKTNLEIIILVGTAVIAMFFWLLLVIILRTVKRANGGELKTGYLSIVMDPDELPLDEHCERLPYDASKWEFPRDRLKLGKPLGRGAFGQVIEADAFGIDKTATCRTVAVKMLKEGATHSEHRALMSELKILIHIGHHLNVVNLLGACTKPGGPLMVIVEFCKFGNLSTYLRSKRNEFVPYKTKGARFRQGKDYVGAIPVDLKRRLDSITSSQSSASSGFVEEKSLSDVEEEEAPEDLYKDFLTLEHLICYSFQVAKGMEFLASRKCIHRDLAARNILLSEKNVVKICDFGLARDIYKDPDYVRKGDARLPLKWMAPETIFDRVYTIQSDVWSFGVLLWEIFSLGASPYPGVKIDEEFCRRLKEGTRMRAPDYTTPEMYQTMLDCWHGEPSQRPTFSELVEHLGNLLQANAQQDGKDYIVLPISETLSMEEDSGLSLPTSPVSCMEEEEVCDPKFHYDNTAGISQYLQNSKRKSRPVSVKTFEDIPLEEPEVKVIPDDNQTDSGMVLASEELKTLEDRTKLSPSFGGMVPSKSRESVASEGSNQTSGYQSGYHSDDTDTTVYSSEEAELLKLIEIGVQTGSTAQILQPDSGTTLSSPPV
Sequence of Fibroblast growth factor receptor 1 (Homo sapiens) (P11362 22-822 limits assumed): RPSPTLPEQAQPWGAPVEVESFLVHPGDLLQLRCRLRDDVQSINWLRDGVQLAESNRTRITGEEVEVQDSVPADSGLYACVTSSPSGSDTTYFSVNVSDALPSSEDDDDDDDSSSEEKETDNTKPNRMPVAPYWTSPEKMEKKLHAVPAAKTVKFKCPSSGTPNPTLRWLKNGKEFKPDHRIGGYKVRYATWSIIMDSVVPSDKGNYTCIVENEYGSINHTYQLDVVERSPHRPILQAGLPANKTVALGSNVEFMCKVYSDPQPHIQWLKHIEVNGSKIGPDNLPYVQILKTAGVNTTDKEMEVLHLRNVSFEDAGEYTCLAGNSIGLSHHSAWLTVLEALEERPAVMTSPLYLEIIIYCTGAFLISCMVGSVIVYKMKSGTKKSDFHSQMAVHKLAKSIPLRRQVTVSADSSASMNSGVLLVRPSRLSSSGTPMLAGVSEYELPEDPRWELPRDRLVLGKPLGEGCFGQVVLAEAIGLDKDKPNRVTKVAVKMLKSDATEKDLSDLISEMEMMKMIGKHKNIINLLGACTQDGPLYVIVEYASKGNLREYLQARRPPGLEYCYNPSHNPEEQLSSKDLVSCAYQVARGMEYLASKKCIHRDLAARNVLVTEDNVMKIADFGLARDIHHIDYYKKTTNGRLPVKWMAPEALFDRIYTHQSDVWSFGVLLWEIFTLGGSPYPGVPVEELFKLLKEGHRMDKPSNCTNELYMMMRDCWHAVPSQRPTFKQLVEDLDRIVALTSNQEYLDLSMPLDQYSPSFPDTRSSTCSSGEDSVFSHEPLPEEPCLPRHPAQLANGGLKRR
Sequence of Insulin-like growth factor 1 receptor (Homo sapiens) (P08069 31-736 limits assumed): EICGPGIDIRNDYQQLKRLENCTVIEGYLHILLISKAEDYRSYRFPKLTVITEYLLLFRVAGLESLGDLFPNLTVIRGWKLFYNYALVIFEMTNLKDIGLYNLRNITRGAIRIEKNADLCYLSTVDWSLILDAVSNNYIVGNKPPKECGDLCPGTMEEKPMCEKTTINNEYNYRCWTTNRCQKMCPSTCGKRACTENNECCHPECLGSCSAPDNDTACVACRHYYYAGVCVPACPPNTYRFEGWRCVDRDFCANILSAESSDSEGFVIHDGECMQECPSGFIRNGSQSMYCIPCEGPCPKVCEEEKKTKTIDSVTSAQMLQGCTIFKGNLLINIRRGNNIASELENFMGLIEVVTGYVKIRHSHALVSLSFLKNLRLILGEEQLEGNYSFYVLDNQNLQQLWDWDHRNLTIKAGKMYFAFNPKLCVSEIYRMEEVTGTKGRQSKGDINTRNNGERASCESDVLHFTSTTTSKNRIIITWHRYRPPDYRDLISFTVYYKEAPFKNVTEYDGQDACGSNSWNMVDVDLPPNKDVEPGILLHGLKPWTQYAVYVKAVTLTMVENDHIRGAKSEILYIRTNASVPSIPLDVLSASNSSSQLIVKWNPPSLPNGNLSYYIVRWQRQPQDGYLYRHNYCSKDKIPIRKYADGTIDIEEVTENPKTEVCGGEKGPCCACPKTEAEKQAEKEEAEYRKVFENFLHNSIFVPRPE
Sequence of Insulin-like growth factor 1 receptor (Homo sapiens) (P08069 741-1367 limits assumed): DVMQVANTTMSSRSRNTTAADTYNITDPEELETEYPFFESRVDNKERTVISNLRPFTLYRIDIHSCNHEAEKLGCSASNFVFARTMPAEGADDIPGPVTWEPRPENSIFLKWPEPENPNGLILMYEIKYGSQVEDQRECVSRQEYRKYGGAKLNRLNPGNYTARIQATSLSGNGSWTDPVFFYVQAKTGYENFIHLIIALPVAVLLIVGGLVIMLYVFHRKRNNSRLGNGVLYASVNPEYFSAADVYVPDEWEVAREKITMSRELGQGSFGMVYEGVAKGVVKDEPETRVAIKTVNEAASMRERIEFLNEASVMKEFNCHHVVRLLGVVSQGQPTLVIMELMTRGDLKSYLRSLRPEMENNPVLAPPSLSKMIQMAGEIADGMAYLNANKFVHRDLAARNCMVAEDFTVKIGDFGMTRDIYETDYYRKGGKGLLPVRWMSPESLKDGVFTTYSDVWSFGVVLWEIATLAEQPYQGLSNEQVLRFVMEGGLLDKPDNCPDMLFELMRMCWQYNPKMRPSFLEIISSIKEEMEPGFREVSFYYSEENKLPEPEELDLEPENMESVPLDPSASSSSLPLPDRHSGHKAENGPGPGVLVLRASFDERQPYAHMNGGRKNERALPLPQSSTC

With `CN1CCN(c2ccc(-c3ccc4[nH]c5nccc(/C=C/c6ccccc6C(F)(F)F)c5c4c3)cc2)CC1`, the results for the IC50 in the data set on BaF3 [1], in the data set on BaF3 [2] and with BaF3 [3] were 1500 nM, 900 nM and 1700 nM, respectively.
The compound `CCN(CC)CCSCC(=O)c1ccc2[nH]c3nccc(Cl)c3c2c1` displayed an IC50 in [4] above 10000 nM.
Turning to `CN1CCN(c2ccc(-c3ccc4[nH]c5nccc(C#Cc6ccccc6)c5c4c3)cc2)CC1`, the figures for the IC50 with BaF3 [1], with BaF3 [2] and in the data set with BaF3 [3] were 3700 nM, 2700 nM and 4400 nM, respectively.
In the case of `C[N+]1(C)CCN(c2ccc(-c3ccc4[nH]c5nccc(C#Cc6ccccc6C(F)(F)F)c5c4c3)cc2)CC1`, the results for the half-maximal inhibitory concentration (IC50) in the data set with BaF3 [1], in the data set with BaF3 [2] and with BaF3 [3] were 2600 nM, 2100 nM and 13000 nM, respectively.
`COC(=O)c1cc(-c2ccnc3[nH]c4ccc(-c5ccc(N6CCN(C)CC6)cc5)cc4c23)ccc1Cc1ccccc1` returned an IC50 in data set [4] above 10000 nM.
In the case of `CN1CCN(c2ccc(-c3ccc4[nH]c5nccc(/C=C/c6cccc(F)c6)c5c4c3)cc2)CC1`, the values for the IC50 with BaF3 [1], in the data set on BaF3 [2] and with BaF3 [3] were 2700 nM, 1800 nM and 9500 nM, respectively.
`C#Cc1ccnc2[nH]c3ccc(-c4ccc(N5CCN(C)CC5)cc4)cc3c12` registered an IC50 in data set [4] above 10000 nM.
Same read-out and setting: to `COc1cc(C(O)c2ccccc2)c(O)cc1-c1ccnc2[nH]c3ccc(-c4ccc(N5CCN(C)CC5)cc4)cc3c12` (stereo not given) belongs above 10000 nM.
Consider `COc1cc(-c2ccnc3[nH]c4ccc(-c5ccc(N6CCN(C)CC6)cc5)cc4c23)c(OC)cc1Cc1ccccc1`, for which the results for the IC50 in the data set with BaF3 [1], in the data set on BaF3 [2] and in the data set on BaF3 [3] were 800 nM, 500 nM and 800 nM, respectively.
The compound `COc1ccc(-c2ccnc3[nH]c4ccccc4c23)cc1` came in with an IC50 in data set [4] above 10000 nM.
Take `CN1CCN(c2ccc(-c3ccc4[nH]c5nccc(-c6ccc(-c7cccc8ccccc78)cc6)c5c4c3)cc2)CC1`: the IC50 is 400 nM with BaF3 [1], 500 nM with BaF3 [2] and 1000 nM in the data set with BaF3 [3].
`CN1CCN(c2ccc(-c3ccc4[nH]c5nccc(/C=C/c6ccccc6F)c5c4c3)cc2)CC1`: the IC50 in the data set with BaF3 [1] came to 1900 nM; in the data set with BaF3 [2], 1600 nM; with BaF3 [3], 5100 nM.
Turning to `CN1CCN(c2ccc(-c3ccc4[nH]c5nccc(N6CCC(Cc7ccccc7)CC6)c5c4c3)cc2)CC1`, the IC50 in the data set on BaF3 [1] is 1200 nM; with BaF3 [2], 600 nM; in the data set on BaF3 [3], 3300 nM.
Taken in the same sequence, the figures for `CN1CCN(c2ccc(-c3ccc4[nH]c5nccc(-c6ccc(-c7ccccc7)cc6)c5c4c3)cc2)CC1` were 4300 nM, 2800 nM and above 25000 nM.
Taken in the same sequence, the figures for `COc1ccc(/C=C/c2ccnc3[nH]c4ccc(-c5ccc(N6CCN(C)CC6)cc5)cc4c23)cc1` were 600 nM, 1600 nM and 4100 nM.
Taken in the same sequence, the figures for `Cc1cc(OCc2ccc(-c3ccnc4[nH]c5ccc(-c6ccc(N7CCN(C)CC7)cc6)cc5c34)cc2)ccc1Cl` were above 25000 nM, above 25000 nM and above 25000 nM.
In [4], `c1ccc(Cc2ccc(-c3ccnc4[nH]c5ccc(-c6ccc(N7CCN(Cc8cccnc8)CC7)cc6)cc5c34)cc2)cc1` yielded an IC50 above 10000 nM.
`CN1CCN(c2ccc(-c3ccc4[nH]c5nccc(-c6cccc(-c7ccccc7)c6)c5c4c3)cc2)CC1`: the IC50 is 1800 nM with BaF3 [1], 1900 nM in the data set with BaF3 [2] and 2700 nM in the data set with BaF3 [3].
`CN1CCN(c2ccc(-c3ccc4[nH]c5nccc(-c6ccc(Cc7ccccc7)cc6)c5c4c3)cc2)CC1`: the result with KARPAS-299 [5], with SUPM2 [7], in the data set on SUPM2 [8], in the data set with SUPM2 [9] and with KARPAS-299 [19] was Active. Also, the half-life in data set [6] was below 24 h. Moreover, the IC50 in the data set with BaF3 [10] was determined as 1900 nM; in the data set on HL-60 it was 17000 nM; in the data set on BaF3 [11], 1300 nM; in the data set on BaF3 [3] it was 8700 nM; in [13], 1100 nM; with KARPAS-299 [17] it was 700 nM. The results for the IC50 with SU-DHL-1 and with BaF3 [21] were 800 nM and 2400 nM, respectively. Further, the Activity in the data set on KARPAS-299 [12] stood at 80%. The inhibition in data set [14], in [15], in data set [16] and in data set [18] was above 90% throughout. Moreover, in data set [20], the Tmax turned out to be 4 h.
As to `CN1CCN(c2ccc(-c3ccc4[nH]c5nccc(-c6ccc(C(=O)c7ccccc7)cc6)c5c4c3)cc2)CC1`, the IC50 in the data set on BaF3 [1] is 6100 nM; with BaF3 [2] it was 1700 nM; in the data set on BaF3 [3], 18000 nM.
Consider `CN(C)/C=C/C(=O)c1ccc2[nH]c3nccc(-c4ccc(Cc5ccccc5)cc4)c3c2c1`, for which the IC50 in [4] was above 10000 nM.
On to `CN1CCN(c2ccc(-c3ccc4[nH]c5nccc(/C=C/c6ccccc6)c5c4c3)cc2)CC1`, for which the IC50 in the data set with BaF3 [1] worked out at 1600 nM; in the data set with BaF3 [2], 1500 nM; with BaF3 [3], 1100 nM.
Regarding `O=[N+]([O-])c1ccccc1Nc1ccnc2[nH]c3ccccc3c12`, the IC50 in data set [4] was above 10000 nM.
